± gives the expanded uncertainty stated by the source.
Settings: Liquid, Vibrating tube method

CCCCCCCCCC [decane]
Settings | mass density [kg/m3]
333.14 K, 31467 kPa | 725.7 ± 2.1
333.14 K, 31504 kPa | 725.7 ± 2.1
333.14 K, 31531 kPa | 725.6 ± 2.1
333.14 K, 31564 kPa | 725.8 ± 2.1
333.14 K, 31694 kPa | 725.9 ± 2.1
333.14 K, 31764 kPa | 725.9 ± 2.1
333.14 K, 32193 kPa | 726 ± 2.1
333.14 K, 32227 kPa | 726.1 ± 2.1
333.14 K, 32261 kPa | 726.2 ± 2.1
333.14 K, 32305 kPa | 726.2 ± 2.1
333.14 K, 32335 kPa | 726.3 ± 2.1
333.14 K, 32366 kPa | 726.3 ± 2.1
333.14 K, 32401 kPa | 726.4 ± 2.1
333.14 K, 32435 kPa | 726.3 ± 2.1
333.15 K, 358 kPa | 699.5 ± 2
333.15 K, 377 kPa | 699.6 ± 2
333.15 K, 404 kPa | 699.5 ± 2
333.15 K, 423 kPa | 699.6 ± 2
333.15 K, 440 kPa | 699.5 ± 2
333.15 K, 465 kPa | 699.6 ± 2
333.15 K, 501 kPa | 699.6 ± 2
333.15 K, 536 kPa | 699.7 ± 2
333.15 K, 563 kPa | 699.6 ± 2
333.15 K, 600 kPa | 699.7 ± 2
333.15 K, 627 kPa | 699.8 ± 2
333.15 K, 645 kPa | 699.8 ± 2
333.15 K, 672 kPa | 699.8 ± 2
333.15 K, 696 kPa | 699.8 ± 2
333.15 K, 727 kPa | 699.7 ± 2
333.15 K, 765 kPa | 699.9 ± 2
333.15 K, 1005 kPa | 700.1 ± 2
333.15 K, 1052 kPa | 700.2 ± 2
333.15 K, 1108 kPa | 700.3 ± 2
333.15 K, 1167 kPa | 700.2 ± 2
333.15 K, 1210 kPa | 700.4 ± 2
333.15 K, 1236 kPa | 700.4 ± 2
333.15 K, 1263 kPa | 700.3 ± 2
333.15 K, 1284 kPa | 700.3 ± 2
333.15 K, 1315 kPa | 700.4 ± 2
333.15 K, 1341 kPa | 700.4 ± 2
333.15 K, 1363 kPa | 700.5 ± 2
333.15 K, 1393 kPa | 700.4 ± 2
333.15 K, 1421 kPa | 700.6 ± 2
333.15 K, 1449 kPa | 700.6 ± 2
333.15 K, 1481 kPa | 700.6 ± 2
333.15 K, 1519 kPa | 700.7 ± 2
333.15 K, 1544 kPa | 700.7 ± 2
333.15 K, 1588 kPa | 700.7 ± 2
333.15 K, 1620 kPa | 700.7 ± 2
333.15 K, 1662 kPa | 700.7 ± 2
333.15 K, 1706 kPa | 700.8 ± 2
333.15 K, 1751 kPa | 701 ± 2
333.15 K, 1782 kPa | 700.9 ± 2
333.15 K, 1825 kPa | 700.9 ± 2
333.15 K, 1879 kPa | 701 ± 2
333.15 K, 1924 kPa | 701 ± 2
333.15 K, 1954 kPa | 701 ± 2
333.15 K, 2001 kPa | 701.1 ± 2
333.15 K, 2049 kPa | 701.1 ± 2
333.15 K, 2081 kPa | 701.2 ± 2
333.15 K, 2130 kPa | 701.3 ± 2
333.15 K, 2176 kPa | 701.4 ± 2
333.15 K, 2223 kPa | 701.4 ± 2
333.15 K, 2280 kPa | 701.4 ± 2
333.15 K, 2332 kPa | 701.3 ± 2
333.15 K, 2406 kPa | 701.5 ± 2
333.15 K, 2460 kPa | 701.6 ± 2
333.15 K, 2497 kPa | 701.6 ± 2
333.15 K, 2529 kPa | 701.6 ± 2
333.15 K, 2556 kPa | 701.6 ± 2
333.15 K, 2594 kPa | 701.7 ± 2
333.15 K, 2623 kPa | 701.7 ± 2
333.15 K, 2666 kPa | 701.7 ± 2
333.15 K, 2701 kPa | 701.7 ± 2
333.15 K, 2737 kPa | 701.7 ± 2
333.15 K, 2769 kPa | 701.8 ± 2
333.15 K, 2837 kPa | 701.9 ± 2
333.15 K, 3106 kPa | 702.2 ± 2
333.15 K, 3141 kPa | 702.3 ± 2
333.15 K, 3150 kPa | 702.3 ± 2
333.15 K, 3174 kPa | 702.3 ± 2
333.15 K, 3195 kPa | 702.3 ± 2
333.15 K, 3232 kPa | 702.3 ± 2
333.15 K, 3264 kPa | 702.3 ± 2
333.15 K, 3283 kPa | 702.4 ± 2
333.15 K, 3311 kPa | 702.4 ± 2
333.15 K, 3335 kPa | 702.4 ± 2
333.15 K, 3368 kPa | 702.4 ± 2
333.15 K, 3387 kPa | 702.5 ± 2
333.15 K, 3414 kPa | 702.4 ± 2
333.15 K, 3444 kPa | 702.5 ± 2
333.15 K, 3468 kPa | 702.5 ± 2
333.15 K, 3500 kPa | 702.6 ± 2
333.15 K, 3528 kPa | 702.6 ± 2
333.15 K, 3556 kPa | 702.7 ± 2
333.15 K, 3593 kPa | 702.6 ± 2
333.15 K, 3622 kPa | 702.7 ± 2
333.15 K, 3651 kPa | 702.7 ± 2
333.15 K, 3678 kPa | 702.8 ± 2
333.15 K, 3717 kPa | 702.7 ± 2
333.15 K, 3736 kPa | 702.8 ± 2
333.15 K, 3769 kPa | 702.8 ± 2
333.15 K, 3790 kPa | 702.8 ± 2
333.15 K, 3823 kPa | 702.8 ± 2
333.15 K, 3870 kPa | 703 ± 2
333.15 K, 3903 kPa | 703 ± 2
333.15 K, 3934 kPa | 703 ± 2
333.15 K, 3970 kPa | 703 ± 2
333.15 K, 3998 kPa | 703.2 ± 2
333.15 K, 4018 kPa | 703.1 ± 2
333.15 K, 4043 kPa | 703.1 ± 2
333.15 K, 4068 kPa | 703.1 ± 2
333.15 K, 4097 kPa | 703.1 ± 2
333.15 K, 4127 kPa | 703.1 ± 2
333.15 K, 4159 kPa | 703.3 ± 2
333.15 K, 4185 kPa | 703.1 ± 2
333.15 K, 4204 kPa | 703.1 ± 2
333.15 K, 4227 kPa | 703.2 ± 2
333.15 K, 4258 kPa | 703.3 ± 2
333.15 K, 4277 kPa | 703.4 ± 2
333.15 K, 4305 kPa | 703.4 ± 2
333.15 K, 4337 kPa | 703.5 ± 2
333.15 K, 4365 kPa | 703.4 ± 2
333.15 K, 4394 kPa | 703.5 ± 2
333.15 K, 4422 kPa | 703.5 ± 2
333.15 K, 4448 kPa | 703.5 ± 2
333.15 K, 4474 kPa | 703.6 ± 2
333.15 K, 4505 kPa | 703.5 ± 2
333.15 K, 4527 kPa | 703.6 ± 2
333.15 K, 4547 kPa | 703.5 ± 2
333.15 K, 4580 kPa | 703.6 ± 2
333.15 K, 4599 kPa | 703.6 ± 2
333.15 K, 4631 kPa | 703.7 ± 2
333.15 K, 4657 kPa | 703.7 ± 2
333.15 K, 4686 kPa | 703.7 ± 2
333.15 K, 4710 kPa | 703.6 ± 2

— the NIST ThermoML archive (doi:10.1021/je800110r)
